Reference: publication PMC6240063, “An improved genome assembly for Larimichthys crocea reveals hepcidin gene expansion with diversified regulation and function” (Communications Biology, 2018)
Ends that are not written are not given here.

Experiments:
Escherichia coli = test: Minimum inhibitory concentration, liquid growth inhibition assay; assay type: cell-based; settings: gram-negative, lowest concentration giving 100% decrease in optical density, peptide in PBS pH 7.4
Text: (§1) The mature peptides of LcHamp1 (HAMP1: […]), LcHamp2-1/4 (HAMP2-1/4: […]), LcHamp2-2 (HAMP2-2: […]), LcHamp2-3 (HAMP2-3: GSPARCRFCCR CCPGMRGCGICCRF), and LcHamp2-5 (HAMP2-5: […]) were synthesized, oxidized, and purified by GL Biochem (Shanghai) Ltd. (Shanghai, China). Purity of the synthesized peptides was >/95%. The synthetic peptides were reconstituted in phosphate buffered saline (PBS; pH 7.4). We tested the antimicrobial activity of synthesized peptides against the five gram-negative bacteria A. hydrophila, E. coli, V. alginolyticus, V. harvryi, and V. parahemolyticus, and three gram-positive bacteria B. subtilis, B. amyloliquefaciens, and S. aureus using liquid growth inhibition assays. The minimum inhibitory concentration was considered the lowest concentration that induced a 100% decrease in the optical density of the bacterial suspension.

Bacillus subtilis = test: as above; assay type: cell-based; settings: gram-positive, lowest concentration giving 100% decrease in optical density, peptide in PBS pH 7.4
Text: as §1

Vibrio harveyi = test: as above; assay type: cell-based; settings: gram-negative, lowest concentration giving 100% decrease in optical density, peptide in PBS pH 7.4
Text: as §1

[1] = test system: Bacillus amyloliquefaciens; test: as above; assay type: cell-based; settings: gram-positive, lowest concentration giving 100% decrease in optical density, peptide in PBS pH 7.4
Text: as §1

Aeromonas hydrophila = test: as above; assay type: cell-based; settings: gram-negative, lowest concentration giving 100% decrease in optical density, peptide in PBS pH 7.4
Text: as §1

Vibrio alginolyticus = test: as above; assay type: cell-based; settings: gram-negative, lowest concentration giving 100% decrease in optical density, peptide in PBS pH 7.4
Text: as §1

Vibrio parahaemloyticus = test: as above; assay type: cell-based; settings: gram-negative, lowest concentration giving 100% decrease in optical density, peptide in PBS pH 7.4
Text: as §1

Staphylococcus aureus = test: as above; assay type: cell-based; settings: gram-positive, lowest concentration giving 100% decrease in optical density, peptide in PBS pH 7.4
Text: as §1

[2] = test system: Singapore grouper iridovirus (SGIV); test: Antiviral activity in SGIV-infected grouper spleen cells; assay type: cell-based; settings: grouper spleen cells pretreated 1 h with 50 µg/mL peptide, SGIV at MOI 2; cytopathic effect, ORF072 and ORF086 expression (real-time PCR), viral titer TCID50; three independent experiments
Procedure: The antiviral activity of synthetic L. crocea hepcidins was tested in grouper spleen cells, in which a viral infection model has already been established. Grouper spleen cells were seeded onto 6-well plates (Thermo Fisher Scientific, USA) for 18 h. The grouper spleen cells were pretreated for 1 h with each synthetic Hamp peptide at a final concentration of 50 µg/mL or with PBS (as a control). After pretreatment, the cells were infected with SGIV at a multiplicity of infection of 2. At 24 h post infection, cytopathic effects in the grouper spleen cells were observed microscopically (Leica Microsystems, Germany). The expression levels of two genes encoding SGIV envelope proteins (ORF072 and ORF086) were measured with real-time PCR. E. coioides β-actin (Ecβ-actin) was amplified as an internal control. The expression level of ORF072 or ORF086 was normalized to Ecβ-actin using the 2^–ΔΔCT method. Moreover, supernatants and infected cell lysates were collected to determine the viral titer 50% tissue culture infectious dose[50]. All data were obtained from three independent experiments with each performed in triplicate.

[3] = test system: macrophages from L. crocea head kidney; test: Intracellular iron in macrophages; assay type: cell-based, Larimichthys crocea; settings: 100 ng/mL peptide, 2 h, ICP-MS, versus PBS control, P < 0.05, three independent experiments
Procedure: Six groups of macrophages (1 × 10^6 cells per well) were seeded onto 6-well plates for 18 h. To each of five of the groups, we added one synthetic hepcidin peptide from L. crocea, with a final concentration of 100 ng/mL. The sixth group (control) was treated with PBS. After 2 h incubation, we measured the intracellular iron concentration of macrophages with Inductively Coupled Plasma Mass Spectrometry. The fold change was expressed as the intracellular iron concentration in macrophages treated with synthetic hepcidin peptides versus the intracellular iron concentration in the control macrophages.

[4] = test system: five gram-negative bacteria and three gram-positive bacteria; test: Minimum inhibitory concentration across all tested bacteria; assay type: cell-based; settings: all eight tested bacteria (five gram-negative, three gram-positive); liquid growth inhibition; no antibacterial activity at highest concentration given as >
Text: as §1

Sequence “GSPARCRFCCR CCPGMRGCGICCRF (disulfide) (disulfide (positions not given here)) [HAMP2-3, synthetic, oxidized mature peptide of Larimichthys crocea hepcidin LcHamp2-3]” has an MIC (Escherichia coli) of 16 µM, an MIC (Bacillus subtilis) of 4 µM and an MIC (Vibrio harveyi) of 16 µM. It also gave an MIC [1] of 8 µM, an MIC (Aeromonas hydrophila) of 16 µM and an MIC (Vibrio alginolyticus) of 16 µM. For the same sequence, the MIC (Vibrio parahaemloyticus) was 16 µM, the MIC (Staphylococcus aureus) was 4 µM and the “antiviral activity against SGIV infection” value (“antiviral activity” for short) [2] was “exhibited antiviral activity”.
For “GSPARCRFCCRCCPRMRGCGICCRF (disulfide) (disulfide (positions not given here)) [HAMP2-5, synthetic, oxidized mature peptide of Larimichthys crocea hepcidin LcHamp2-5]”, the MIC (Escherichia coli) was 0.5 µM, the MIC (Bacillus subtilis) was 0.25 µM and the MIC (Vibrio harveyi) was 0.5 µM. The MIC [1] was 1 µM, the MIC (Aeromonas hydrophila) was 1 µM and the MIC (Vibrio alginolyticus) was 0.25 µM. For the same sequence, the MIC (Vibrio parahaemloyticus) was 0.5 µM, the MIC (Staphylococcus aureus) was 0.5 µM and the “antiviral activity” value [2] was “no identifiable antiviral activity”.
“QSHISLCRYCCNCCKNKGCGYCCRF (disulfide (positions not given here)) [HAMP1, synthetic, oxidized mature peptide of Larimichthys crocea hepcidin LcHamp1]” was tested, and the “antiviral activity” value [2] was “no identifiable antiviral activity”, the “intracellular iron content of macrophages (regulatory effect on iron metabolism)” value (“intracellular iron content” for short) [3] was “increases in iron content” and the “minimum inhibitory concentrations for the bacterial species tested” value (shortened to “minimum inhibitory concentrations”) [4] was over 300 µM.
In the case of “SSAAKCQFCCRCCPDMIGCGICCRF (disulfide (positions not given here)) [HAMP2-1/4]”, the “antiviral activity” value [2] is reported as “exhibited antiviral activity”, the “intracellular iron content” value [3] is reported as “increases in iron content” and the “minimum inhibitory concentrations” value [4] is reported as over 300 µM.
With “SSAAKCQFCCRCCPRMSGCGVCCRF (disulfide (positions not given here)) [HAMP2-2, synthetic, oxidized mature peptide of Larimichthys crocea hepcidin LcHamp2-2]” the “antiviral activity” value [2] was “no identifiable antiviral activity”, the “intracellular iron content” value [3] was “no antibacterial activity, antiviral activity or regulatory effect on iron metabolism” and the “minimum inhibitory concentrations” value [4] was over 300 µM.
